# Literature values as cited in patent US20240398763A1, “ORAL DOSAGE FORM CONTAINING ONCOLOGICAL ACTIVE INGREDIENT” (OWP Pharmaceuticals, Inc., priority 2023, published 2024).
# Where a name gives a salt, the structure may show the parent alone. Read-outs that look alike come from different tables or passages of the source.
# [1] = in water / aqueous media, in words
SMILES,Solubility [1],also measured
Cc1cnc(Nc2ccc(OCCN3CCCC3)cc2)nc1Nc1cccc(S(=O)(=O)NC(C)(C)C)c1 [fedratinib],,Solubility (pH 1): condition (>100 mg/mL; Solubility (pH 7.4): (4 mcg/mL at pH 7.4)
CN(C)CCOc1ccc(/C(=C(/CCCl)c2ccccc2)c2ccccc2)cc1 [toremifene citrate],,Water solubility (at 37° C.): 37 °C is 0.63 mg/mL
C=CC(=O)Nc1cc(Nc2ncc(C(=O)OC(C)C)c(-c3cn(C)c4ccccc34)n2)c(OC)cc1N(C)CCN(C)C [mobocertinib],,Solubility (pH 1.0 solution at 37° C.): solubility of 152 mg/mL
CO[C@]1(C(=O)N[C@@H](C)c2ccc(-n3cc(F)cn3)nc2)CC[C@H](c2nc(C)cc(Nc3cc(C)[nH]n3)n2)CC1 [pralsetinib],,"Solubility (aqueous media, pH 1.99): 0.880 mg/mL to"
Nc1cccc2c1C(=O)N(C1CCC(=O)NC1=O)C2=O (stereo not drawn) [pomalidomide],,Solubility (all pH solutions): ~0.01 mg/mL
Cc1nc(NC(=O)N2CCC[C@H]2C(N)=O)sc1-c1ccnc(C(C)(C)C(F)(F)F)c1 [alpelisib],insoluble in water,
COc1cc2ncnc(Nc3ccc(F)c(Cl)c3)c2cc1NC(=O)/C=C/CN1CCCCC1 [dacomitinib],insoluble in water,
NC(=O)NO [hydroxyurea],,Solubility (condition not given): 15 mg/mL
O=NN(CCCl)C(=O)NC1CCCCC1 [lomustine],insoluble in water,
CNC(=O)c1ccccc1Sc1ccc2c(/C=C/c3ccccn3)n[nH]c2c1 [axitinib],,Solubility (aqueous media over the range pH 1.1 to pH 7.8): excess of 0.2 μg/mL
CS(=O)(=O)c1ccc(C(=O)Nc2ccc(Cl)c(-c3ccccn3)c2)c(Cl)c1 [vismodegib],,Solubility (pH 1): 0.99 mg/mL at pH 1; Solubility (pH 7): 0.1 μg/mL at pH 7 and
Cn1cnc2c(F)c(Nc3ccc(Br)cc3F)c(C(=O)NOCCO)cc21 [binimetinib],"Slightly soluble at pH 1,",
CN1CC[C@@H](NC(=O)Nc2ccc(C#N)cc2)C[C@@H]1c1nc2ccccc2[nH]1 [glasdegib],,Solubility (condition not given): 1.7 mg/mL
C=C(F)C(=O)N1CCN(c2nc(OC[C@@H]3CCCN3C)nc3c2CCN(c2cccc4cccc(Cl)c24)C3)C[C@@H]1CC#N [adagrasib],,"Solubility (aqueous media, pH 7.4): to <0.010 mg/mL; Solubility (pH 1.2): from >262 mg/mL"
CO[C@H]1C[C@@H]2CC[C@@H](C)[C@@](O)(O2)C(=O)C(=O)N2CCCC[C@H]2C(=O)O[C@H]([C@H](C)C[C@@H]2CC[C@@H](OCCO)[C@H](OC)C2)CC(=O)[C@H](C)/C=C(\C)[C@@H](O)[C@@H](OC)C(=O)[C@H](C)C[C@H](C)/C=C/C=C/C=C/1C [everolimus],insoluble in water,

# Second part, led by results:
Solubility [1],SMILES,also measured
insoluble in water,CN1CCC(COc2cnc(-c3cccc(Cn4nc(-c5cccc(C#N)c5)ccc4=O)c3)nc2)CC1 [tepotinib],
insoluble in water,CN(Cc1cnc2nc(N)nc(N)c2n1)c1ccc(C(=O)N[C@@H](CCC(=O)O)C(=O)O)cc1 [methotrexate],
insoluble in water,Nc1cccc2c1CN(C1CCC(=O)NC1=O)C2=O (stereo not drawn) [lenalidomide],
low solubility,O=C(c1cc(Cc2n[nH]c(=O)c3ccccc23)ccc1F)N1CCN(C(=O)C2CC2)CC1 [olaparib],
water soluble; water,O=c1[nH]c(=O)n([C@H]2C[C@H](O)[C@@H](CO)O2)cc1C(F)(F)F [trifluridine],
insoluble in water,N[C@@H](Cc1cc(I)c(Oc2cc(I)c(O)c(I)c2)c(I)c1)C(=O)O [levothyroxine sodium],
water soluble; water,N=C1CCCN1Cc1[nH]c(=O)[nH]c(=O)c1Cl [tipiracil hydrochloride],
insoluble in water,Cn1ncnc1[C@H]1c2n[nH]c(=O)c3cc(F)cc(c23)N[C@@H]1c1ccc(F)cc1 [talazoparib tosylate],
water soluble,CCCCCN(C)CCC(O)(P(=O)(O)O)P(=O)(O)O [ibandronate sodium],
